Measurements as given in patent US10544131B2, “MCL-1 antagonists” (The Regents of the University of California, priority 2014, dated 2020).
“Also recorded” adds a separate entry of the source.

Columns and labels:
[1] = molecular target: T1, recombinant Mcl-1 (Homo sapiens, UniProt Q07820); test: isothermal titration microcalorimetry (ITC) with purified recombinant Mcl-1; assay type: binding; settings: for binding / affinity for Mcl-1 measurable by ITC: purified recombinant Mcl-1, in words
T1 construct: made in house; host or cells: E. coli

[2] = molecular target: Bcl-xL (Homo sapiens, UniProt Q07817); test: liposome assay with Bcl-xL in place of Mcl-1; assay type: biochemical
Excerpt: (§1) Moreover, when Mcl-1 was replaced with Bcl-xL in the assay, 12 also had no effect (FIG. 10). […] Toxic thrombocytopenia caused by ABT-737 in vivo has been correlated with Bcl-xL inhibition.^25

[3] = system: Mcl-1/Bak PPI; test: liposome functional assay for Mcl-1/Bak (calcein release, MOMP model); assay type: biochemical; settings: in words
Excerpt: The Shore lab has developed a functional assay utilizing recombinant proteins anchored in artificial liposomes that enables the evaluation of small-molecules to disrupt the Mcl-1/Bak PPI (FIG. 2A). In this assay, full-length functional single cysteine mutants of Mcl-1 and Bak were anchored into lipids (with PE's) utilizing the engineered cysteine residues as a handle. This allows Applicants to recapitulate Bak-mediated mitochondrial permeabilization and measure the various protein-protein and protein-membrane interactions involved in Mcl-1 regulation of Bak. The release of calcenin (Cn) dye encapsulated in the liposome was used to quantify membrane permeabilization. When the system is untreated, Mcl-1 sequesters Bak by engaging its BH3 domain. Incubation with an active inhibitor neutralizes Mcl-1. This triggers Bak auto-oligomerization resulting in the formation of pores in the lipid membrane and release of Cn. By measuring […] from Cn, Applicants can quantify antagonism of Mcl-1 in real time.
(§2) Synthetic 3, along with numerous intermediates and their derivatives were assayed in a model system for mitochondrial outer membrane permeabilization (MOMP). This liposome based experiment recapitulates a signaling axis involving pro-apoptotic Bak, anti-apoptotic Mcl-1, and an active, truncated 15 kDa subunit of the pro-death protein Bid (tBid).^11 Bak and Mcl-1 are transmembrane proteins constitutively anchored in the mitochondrial outer membrane. tBid translocates to mitochondria upon cleavage of Bid by caspase-8 and stimulates MOMP by directly activating free Bak and by disengaging any activated Bak from Mcl-1. Applicants' assay mimics these events using recombinant, lipidated Mcl-1 and Bak that are constitutively bound to unilamellar liposomes encapsulating calcein dye. tBid addition initiates Bak homo oligomerization and pore formations, which in turn results in calcein release and a fluorescence signal. Mcl-1 counters this tBid dependent activation of Bak, which is overcome by small molecule Mcl-1 antagonists (FIG. 6).

[4] = system: Bak; test: liposome assay with Bak-loaded proteoliposomes lacking Mcl-1; assay type: biochemical; settings: Bak loaded proteoliposomes without Mcl-1
Method: as §2
(§3) Recombinant Mcl-1 was expressed and purified from E. coli.
as §1

[5] = system: Ep-myc (myr) Akt lymphoma cells; test: mouse lymphoma model with and without doxorubicin, tumor-free survival; assay type: in vivo, C57BL/6 mice
Method: C57BL/6 mice were tail-vein injected with Ep-myc (myr) Akt lymphoma cells and palpable tumors (multiple sites per animal) allowed to develop. Animals were randomized for tumor burden and treated by intraperitoneal (IP) injection with vehicle, or vehicle containing obatoclax (10 mg/kg) or JHF3056 (40 mg/kg) daily×5. In addition, animals received a single injection of doxorubicin (IP, 10 mg/kg) on day 2 of the injection regimen, either alone or in combination with the obatoclax (9) or JHF3056 (10) regimen. Animals were allowed to become tumor-free (no observable palpable tumors) and then tumor-free survival was measured (time to re-appearance of tumors).

[6] = in vivo toxicity (minimum toxic dose)
[7] = system: human KMS-11 myeloid leukemia cells; test: cytotoxicity in cell culture, KMS-11; assay type: cell-based; settings: KMS-11 cells, single dose, in words
[8] = system: human KMS-11 cells; test: cytotoxicity in cell culture, KMS-11; assay type: cell-based; settings: 1.0 μM concentration
[9] = stability of the neat substance; assay type: physicochemical; settings: in words
[10] = system: truncated Bid; test: binding to truncated Bid; settings: data not shown
Excerpt: as §3

T1 sequence (Q07820 whole entry): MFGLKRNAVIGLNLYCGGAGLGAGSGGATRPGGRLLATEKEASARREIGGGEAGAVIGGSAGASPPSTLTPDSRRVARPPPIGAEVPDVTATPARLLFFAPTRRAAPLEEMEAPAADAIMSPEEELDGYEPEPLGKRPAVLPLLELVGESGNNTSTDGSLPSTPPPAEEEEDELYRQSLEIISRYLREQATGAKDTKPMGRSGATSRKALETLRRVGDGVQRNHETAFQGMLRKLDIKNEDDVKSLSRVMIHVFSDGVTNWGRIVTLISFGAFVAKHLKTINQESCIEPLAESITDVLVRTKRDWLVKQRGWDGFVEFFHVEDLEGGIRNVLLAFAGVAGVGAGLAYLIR
Sequence of Bcl-xL (Q07817 whole entry, species assumed): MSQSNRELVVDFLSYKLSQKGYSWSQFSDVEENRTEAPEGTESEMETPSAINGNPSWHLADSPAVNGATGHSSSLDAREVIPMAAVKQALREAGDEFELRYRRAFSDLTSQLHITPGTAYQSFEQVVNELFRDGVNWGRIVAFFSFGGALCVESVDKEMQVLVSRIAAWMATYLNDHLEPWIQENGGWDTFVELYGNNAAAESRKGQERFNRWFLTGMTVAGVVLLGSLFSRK

| Kd ([1]; purified recombinant Mcl-1) [nM] | binding / affinity for Mcl-1 measurable by ITC [1] | SMILES | MOMP-like pore formation in liposomes containing Bcl-xL [2] | antagonism of Mcl-1 / Bak-mediated permeabilization of liposomal membranes [3] | calcein release from liposomes lacking Mcl-1 [4] | anti-tumor activity in combination with doxorubicin ([5]; JHF3056 40 mg/kg IP daily×5, doxorubicin 10 mg/kg IP day 2) | anti-tumor activity in combination with doxorubicin ([5]; JHF3056 40 mg/kg IP daily×5, doxorubicin 10 mg/kg IP day 2, listed as 10) | binding / affinity for Mcl-1 measurable by ITC ([1]; listed as 5) | minimum toxic dose ([6]; in vivo) [mg/kg] | toxicity at pharmacologically relevant doses ([6]; in words) | cytotoxicity [7] | cytotoxicity ([7]; listed as 10) | cytotoxic activity relative to obatoclax [8] | stability [9] | stability ([9]; listed as 5) | antagonism of Mcl-1 / Bak-mediated permeabilization of liposomal membranes ([3]; listed as 5) | antagonism of Mcl-1 / Bak-mediated permeabilization of liposomal membranes ([3]; listed as 10) | binding to truncated Bid [10] |
| --- | --- | --- | --- | --- | --- | --- | --- | --- | --- | --- | --- | --- | --- | --- | --- | --- | --- | --- |
| 700 ± 120 | strong, saturable binding | COc1cc(-c2c(Cl)ccn2S(=O)(=O)c2ccc(C)cc2)oc1-c1nnn[nH]1 [Compound 12] | no effect; also recorded: did not stimulate MOMP-like pore formations | stimulate Bak-mediated permeabilization of liposomal membranes; also recorded: successfully drove pore formations; also recorded: exceeded that of 5 and obatoclax | did not release calcein dye |  |  |  |  |  |  |  |  |  |  |  |  |  |
|  |  | COc1cc(-c2c(Cl)ccn2S(=O)(=O)c2ccc(C)cc2)oc1C(C)=O [JHF3056, 1-(5-(3-chloro-1-tosyl-1H-pyrrol-2-yl)-3-methoxyfuran-2-yl)ethan-1-one] |  | capacity to antagonize the Mcl-1/Bak PPI; also recorded: directly antagonizes Mcl-1; also recorded: superior performance of JHF3056 (10) relative to 8 and 9 | did not induce release of calcein | sensitizes lymphoma tumor xenografts to doxorubicin | clear anti-tumor activity in combination with the chemotherapeutic doxorubicin | Neither 2 nor 5 demonstrated measurable affinity | 80 | nontoxic at pharmacologically relevant doses | cytotoxic at micromolar concentrations; also recorded: sub-micromolar cytotoxicity | sub-micromolar single dose cytotoxicity | enhanced activity relative to obatoclax (9) | stable solid | bench stable solid | counter Mcl-1 activity and promote Bak-mediated permeabilization of liposomal membranes; also recorded: near equipotent to 4 | promising activity | no binding |
|  |  | COc1cc(-c2[nH]ccc2Cl)oc1C1=C2N=C3C=C2[C@H](C(C)C)[C@H]1CCCCCCCC3 [roseophilin, reference compound] |  | little activity |  |  |  |  |  |  |  |  |  |  |  |  |  |  |
